# Like-named read-outs stand apart in the source and are kept apart here.
# Tests used:
# Assay type in all cases: binding
# D2 = D2 (Homo sapiens, UniProt P14416); test: pKi of test compounds, D2 receptor
# D3 = D3 (Homo sapiens, UniProt P35462); test: pKi of test compounds, D3 receptor
# 5HT1A = target: T1, 5HT1A (Homo sapiens, UniProt P08908); test: pKi of test compounds, 5HT1A receptor
# T1 sequence (P08908 1-422): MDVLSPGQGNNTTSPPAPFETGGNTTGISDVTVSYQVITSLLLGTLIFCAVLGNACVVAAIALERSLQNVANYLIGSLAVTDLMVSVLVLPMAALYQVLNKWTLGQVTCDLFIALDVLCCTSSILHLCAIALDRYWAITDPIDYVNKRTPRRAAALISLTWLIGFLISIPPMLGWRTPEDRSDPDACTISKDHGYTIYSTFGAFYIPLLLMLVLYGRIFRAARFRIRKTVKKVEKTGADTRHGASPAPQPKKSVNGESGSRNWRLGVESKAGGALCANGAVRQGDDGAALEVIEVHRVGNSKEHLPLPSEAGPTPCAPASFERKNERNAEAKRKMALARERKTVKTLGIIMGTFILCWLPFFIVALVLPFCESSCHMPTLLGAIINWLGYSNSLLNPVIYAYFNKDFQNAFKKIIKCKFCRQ
# 5-HT2A receptor = 5-HT2A receptor (Homo sapiens, UniProt P28223); test: pKi of test compounds, 5-HT2A receptor
# 5-HT2A receptor, sequence (P28223 whole entry): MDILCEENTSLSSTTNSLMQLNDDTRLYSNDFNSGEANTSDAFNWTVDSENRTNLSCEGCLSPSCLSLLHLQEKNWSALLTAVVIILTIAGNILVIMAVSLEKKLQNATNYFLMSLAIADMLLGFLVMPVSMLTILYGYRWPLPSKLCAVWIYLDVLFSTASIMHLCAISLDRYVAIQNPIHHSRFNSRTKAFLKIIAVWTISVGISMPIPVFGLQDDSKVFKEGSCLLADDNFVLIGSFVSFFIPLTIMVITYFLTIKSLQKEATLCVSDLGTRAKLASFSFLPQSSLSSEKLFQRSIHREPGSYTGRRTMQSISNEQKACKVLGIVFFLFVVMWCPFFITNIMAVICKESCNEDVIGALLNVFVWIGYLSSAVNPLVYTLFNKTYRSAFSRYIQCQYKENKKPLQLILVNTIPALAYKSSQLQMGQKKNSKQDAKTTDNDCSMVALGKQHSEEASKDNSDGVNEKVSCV
# 5HT2B = 5HT2B (Homo sapiens, UniProt P41595); test: pKi of test compounds, 5HT2B receptor
# 5HT2B, sequence (P41595 whole entry, species assumed): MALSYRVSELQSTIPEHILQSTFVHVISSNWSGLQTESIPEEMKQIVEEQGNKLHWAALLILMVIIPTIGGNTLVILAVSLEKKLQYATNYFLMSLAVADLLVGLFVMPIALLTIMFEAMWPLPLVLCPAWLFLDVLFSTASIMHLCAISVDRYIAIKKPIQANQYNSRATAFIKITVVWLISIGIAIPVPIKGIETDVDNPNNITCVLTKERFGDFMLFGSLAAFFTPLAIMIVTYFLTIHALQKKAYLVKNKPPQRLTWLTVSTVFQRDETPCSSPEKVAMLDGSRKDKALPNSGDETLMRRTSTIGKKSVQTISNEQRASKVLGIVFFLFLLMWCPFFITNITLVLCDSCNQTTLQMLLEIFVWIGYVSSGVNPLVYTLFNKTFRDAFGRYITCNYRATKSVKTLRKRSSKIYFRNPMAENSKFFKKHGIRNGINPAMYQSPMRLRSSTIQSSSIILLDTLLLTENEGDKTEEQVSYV
# 5HT2C = target: T2, 5HT2C (Homo sapiens, UniProt P28335); test: pKi of test compounds, 5HT2C receptor
# T2 sequence (P28335 33-458): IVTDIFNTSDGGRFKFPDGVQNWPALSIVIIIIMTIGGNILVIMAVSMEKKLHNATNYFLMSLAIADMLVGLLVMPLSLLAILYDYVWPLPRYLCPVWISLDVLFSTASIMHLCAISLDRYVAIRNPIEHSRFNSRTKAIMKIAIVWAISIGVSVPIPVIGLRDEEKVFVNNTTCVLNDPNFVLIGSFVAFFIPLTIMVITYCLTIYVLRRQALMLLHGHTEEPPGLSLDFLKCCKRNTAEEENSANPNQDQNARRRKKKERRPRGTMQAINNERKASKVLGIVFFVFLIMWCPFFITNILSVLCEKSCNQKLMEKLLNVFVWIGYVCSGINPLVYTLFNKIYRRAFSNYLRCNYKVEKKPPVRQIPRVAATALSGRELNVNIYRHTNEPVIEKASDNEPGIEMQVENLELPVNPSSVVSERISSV
# 5HT6rat = 5HT6rat (Rattus norvegicus, UniProt P31388); test: pKi of test compounds, 5HT6 receptor
# 5HT6rat, sequence (P31388 whole entry): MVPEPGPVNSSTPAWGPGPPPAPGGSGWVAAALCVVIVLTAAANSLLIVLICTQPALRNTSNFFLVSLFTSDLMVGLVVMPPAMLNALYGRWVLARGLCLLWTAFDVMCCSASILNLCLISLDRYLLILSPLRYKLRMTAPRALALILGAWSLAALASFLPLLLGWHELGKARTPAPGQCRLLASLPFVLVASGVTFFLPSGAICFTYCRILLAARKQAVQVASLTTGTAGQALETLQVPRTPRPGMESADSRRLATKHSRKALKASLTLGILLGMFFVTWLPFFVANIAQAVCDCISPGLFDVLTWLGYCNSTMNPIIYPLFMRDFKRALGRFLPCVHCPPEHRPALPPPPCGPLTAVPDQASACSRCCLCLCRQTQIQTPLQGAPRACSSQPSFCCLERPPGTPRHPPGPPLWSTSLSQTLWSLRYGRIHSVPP
# 5HT7rat = 5HT7rat (Rattus norvegicus, UniProt P32305); test: pKi of test compounds, 5HT7 receptor
# 5HT7rat, sequence (P32305 whole entry): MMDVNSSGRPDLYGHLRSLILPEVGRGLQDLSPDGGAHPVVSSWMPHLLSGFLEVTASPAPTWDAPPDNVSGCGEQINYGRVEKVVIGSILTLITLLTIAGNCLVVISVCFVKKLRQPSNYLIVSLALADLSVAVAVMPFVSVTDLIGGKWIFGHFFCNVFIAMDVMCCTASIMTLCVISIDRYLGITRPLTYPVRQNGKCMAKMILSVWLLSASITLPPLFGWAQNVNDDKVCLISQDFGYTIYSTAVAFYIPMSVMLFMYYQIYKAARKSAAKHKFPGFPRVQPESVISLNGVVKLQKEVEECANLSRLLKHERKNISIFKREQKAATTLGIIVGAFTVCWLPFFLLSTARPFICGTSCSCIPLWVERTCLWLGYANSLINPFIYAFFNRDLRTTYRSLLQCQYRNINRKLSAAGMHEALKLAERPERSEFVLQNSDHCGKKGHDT
# Alpha1A = target: T3, Alpha1A (Homo sapiens, UniProt P35348); test: pKi of test compounds, adrenergic receptor Alpha1A
# T3 sequence (P35348 1-466): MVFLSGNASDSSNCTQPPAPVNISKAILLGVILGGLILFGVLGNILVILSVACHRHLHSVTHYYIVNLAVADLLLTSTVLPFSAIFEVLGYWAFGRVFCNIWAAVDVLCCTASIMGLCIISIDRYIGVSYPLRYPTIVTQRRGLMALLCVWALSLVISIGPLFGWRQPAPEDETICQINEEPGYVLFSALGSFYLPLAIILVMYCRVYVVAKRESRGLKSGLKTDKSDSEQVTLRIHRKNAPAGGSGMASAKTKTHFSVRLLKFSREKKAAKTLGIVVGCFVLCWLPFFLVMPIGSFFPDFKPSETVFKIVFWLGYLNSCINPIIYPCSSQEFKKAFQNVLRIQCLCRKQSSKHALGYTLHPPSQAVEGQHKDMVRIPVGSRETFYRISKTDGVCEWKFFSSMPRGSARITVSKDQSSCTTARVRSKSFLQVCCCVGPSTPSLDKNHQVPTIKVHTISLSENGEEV
# Alpha2A = target: T4, Alpha2A (Homo sapiens, UniProt P08913); test: pKi of test compounds, adrenergic receptor Alpha2A
# T4 sequence (P08913 1-465): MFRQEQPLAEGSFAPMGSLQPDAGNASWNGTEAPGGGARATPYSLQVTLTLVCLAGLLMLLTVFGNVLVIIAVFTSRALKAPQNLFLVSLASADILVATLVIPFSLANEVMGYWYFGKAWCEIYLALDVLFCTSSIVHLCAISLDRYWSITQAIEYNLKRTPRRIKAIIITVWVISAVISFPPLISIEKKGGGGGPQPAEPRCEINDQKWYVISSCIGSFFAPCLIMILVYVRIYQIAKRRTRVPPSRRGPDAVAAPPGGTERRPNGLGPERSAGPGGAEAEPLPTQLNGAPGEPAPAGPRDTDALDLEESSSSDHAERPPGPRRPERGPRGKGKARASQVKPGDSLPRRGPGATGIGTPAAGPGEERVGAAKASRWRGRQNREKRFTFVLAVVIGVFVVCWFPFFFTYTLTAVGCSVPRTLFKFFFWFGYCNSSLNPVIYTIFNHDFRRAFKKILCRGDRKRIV
# Alpha2B = Alpha2B (Homo sapiens, UniProt P18089); test: pKi of test compounds, adrenergic receptor Alpha2B
# Alpha2C = target: T5, Alpha2C (Homo sapiens, UniProt P18825); test: pKi of test compounds, adrenergic receptor Alpha2C
# T5 sequence (P18825 1-462): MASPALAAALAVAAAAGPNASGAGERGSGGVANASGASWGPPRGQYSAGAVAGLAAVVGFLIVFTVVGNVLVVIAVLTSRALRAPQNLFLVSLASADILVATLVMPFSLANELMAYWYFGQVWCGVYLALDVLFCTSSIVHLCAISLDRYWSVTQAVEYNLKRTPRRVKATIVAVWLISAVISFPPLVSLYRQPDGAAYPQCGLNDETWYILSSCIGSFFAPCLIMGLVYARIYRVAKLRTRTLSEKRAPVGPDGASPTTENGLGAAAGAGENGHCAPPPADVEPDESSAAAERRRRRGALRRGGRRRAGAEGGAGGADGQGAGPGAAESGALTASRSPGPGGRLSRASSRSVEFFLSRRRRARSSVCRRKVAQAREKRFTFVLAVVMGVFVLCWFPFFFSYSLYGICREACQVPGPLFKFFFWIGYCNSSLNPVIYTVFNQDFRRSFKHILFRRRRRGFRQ
# Beta1 = Beta1 (Homo sapiens, UniProt P08588); test: pKi of test compounds, adrenergic receptor Beta1
# Beta2 = Beta2 (Homo sapiens, UniProt P07550); test: pKi of test compounds, adrenergic receptor Beta2
# Beta2, sequence (P07550 whole entry): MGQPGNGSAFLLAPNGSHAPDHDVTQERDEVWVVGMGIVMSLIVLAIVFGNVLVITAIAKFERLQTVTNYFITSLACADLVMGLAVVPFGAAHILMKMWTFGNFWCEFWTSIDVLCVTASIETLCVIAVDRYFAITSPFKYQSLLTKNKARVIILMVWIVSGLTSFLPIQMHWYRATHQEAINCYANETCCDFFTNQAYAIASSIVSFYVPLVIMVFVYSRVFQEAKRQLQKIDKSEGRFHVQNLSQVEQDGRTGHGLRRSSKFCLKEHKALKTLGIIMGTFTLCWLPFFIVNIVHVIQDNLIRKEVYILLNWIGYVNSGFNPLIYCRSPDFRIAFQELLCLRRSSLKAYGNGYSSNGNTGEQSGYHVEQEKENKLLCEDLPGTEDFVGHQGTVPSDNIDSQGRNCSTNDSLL
# D1 = D1 (Homo sapiens, UniProt P21728); test: pKi of test compounds, D1 receptor
# D1, sequence (P21728 whole entry): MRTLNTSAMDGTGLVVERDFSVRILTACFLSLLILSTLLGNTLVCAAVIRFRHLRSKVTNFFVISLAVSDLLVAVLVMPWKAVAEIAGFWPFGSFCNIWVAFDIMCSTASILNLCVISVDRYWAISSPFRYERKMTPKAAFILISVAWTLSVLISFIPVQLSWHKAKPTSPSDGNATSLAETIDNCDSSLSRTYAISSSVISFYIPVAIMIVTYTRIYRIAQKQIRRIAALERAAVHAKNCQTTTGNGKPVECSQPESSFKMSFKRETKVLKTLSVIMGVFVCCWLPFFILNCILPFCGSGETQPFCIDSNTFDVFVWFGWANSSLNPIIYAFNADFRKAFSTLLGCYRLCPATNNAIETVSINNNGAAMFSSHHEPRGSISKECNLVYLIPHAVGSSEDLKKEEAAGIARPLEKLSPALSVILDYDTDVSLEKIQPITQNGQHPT
# D4 receptor = target: T6, D4 receptor (Homo sapiens, UniProt P21917); test: pKi of test compounds, D4 receptor
# T6 sequence (P21917 1-419): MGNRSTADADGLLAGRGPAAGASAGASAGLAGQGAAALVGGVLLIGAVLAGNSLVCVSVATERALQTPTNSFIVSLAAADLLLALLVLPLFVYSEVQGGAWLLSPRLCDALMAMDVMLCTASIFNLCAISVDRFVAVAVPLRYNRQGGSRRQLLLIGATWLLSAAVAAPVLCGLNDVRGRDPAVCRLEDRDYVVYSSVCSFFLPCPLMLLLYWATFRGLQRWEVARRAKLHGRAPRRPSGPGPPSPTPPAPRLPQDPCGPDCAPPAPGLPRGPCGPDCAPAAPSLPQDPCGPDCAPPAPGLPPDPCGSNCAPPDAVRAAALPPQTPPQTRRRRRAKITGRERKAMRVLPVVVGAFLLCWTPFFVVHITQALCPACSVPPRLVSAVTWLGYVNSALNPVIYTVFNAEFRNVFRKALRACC
# 5HT1B = 5HT1B (Homo sapiens, UniProt P28222); test: pKi of test compounds, 5HT1B receptor
# 5HT1B, sequence (P28222 whole entry, species assumed): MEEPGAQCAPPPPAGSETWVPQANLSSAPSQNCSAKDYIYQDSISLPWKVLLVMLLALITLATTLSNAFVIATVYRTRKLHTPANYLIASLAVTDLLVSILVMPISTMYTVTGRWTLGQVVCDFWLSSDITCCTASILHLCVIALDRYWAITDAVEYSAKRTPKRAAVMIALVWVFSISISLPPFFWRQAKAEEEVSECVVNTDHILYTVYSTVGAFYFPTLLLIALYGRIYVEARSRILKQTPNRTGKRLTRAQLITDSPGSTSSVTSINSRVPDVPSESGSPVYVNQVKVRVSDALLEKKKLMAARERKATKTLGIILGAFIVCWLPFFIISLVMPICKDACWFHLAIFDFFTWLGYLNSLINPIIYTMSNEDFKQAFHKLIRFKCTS
# 5HT1D = 5HT1D (Homo sapiens, UniProt P28221); test: pKi of test compounds, 5HT1D receptor
# 5HT1D, sequence (P28221 whole entry, species assumed): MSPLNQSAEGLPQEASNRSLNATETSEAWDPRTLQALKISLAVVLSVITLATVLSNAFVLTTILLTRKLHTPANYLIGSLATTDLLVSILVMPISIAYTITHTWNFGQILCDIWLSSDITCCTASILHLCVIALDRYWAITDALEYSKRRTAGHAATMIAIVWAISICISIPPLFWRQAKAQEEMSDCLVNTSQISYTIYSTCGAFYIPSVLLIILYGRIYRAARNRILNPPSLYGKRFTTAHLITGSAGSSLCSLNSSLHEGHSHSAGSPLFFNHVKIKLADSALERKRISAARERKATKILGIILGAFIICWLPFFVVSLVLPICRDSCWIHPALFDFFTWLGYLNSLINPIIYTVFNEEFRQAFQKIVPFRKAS
# 5HT1E = 5HT1E (Homo sapiens, UniProt P28566); test: pKi of test compounds, 5HT1E receptor
# 5HT1E, sequence (P28566 whole entry, species assumed): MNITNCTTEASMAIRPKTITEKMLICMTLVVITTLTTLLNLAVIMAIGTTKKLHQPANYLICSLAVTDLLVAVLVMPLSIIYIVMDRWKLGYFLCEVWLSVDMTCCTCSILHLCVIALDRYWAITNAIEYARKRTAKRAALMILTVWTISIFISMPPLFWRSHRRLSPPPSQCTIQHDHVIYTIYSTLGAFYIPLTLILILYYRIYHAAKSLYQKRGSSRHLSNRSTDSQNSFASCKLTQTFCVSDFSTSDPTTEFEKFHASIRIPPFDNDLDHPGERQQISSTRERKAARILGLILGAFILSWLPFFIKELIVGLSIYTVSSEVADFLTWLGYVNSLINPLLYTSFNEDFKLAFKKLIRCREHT
# [1] = read-out: pKi 5HT1D (converted)
# D2, sequence (P14416 whole entry): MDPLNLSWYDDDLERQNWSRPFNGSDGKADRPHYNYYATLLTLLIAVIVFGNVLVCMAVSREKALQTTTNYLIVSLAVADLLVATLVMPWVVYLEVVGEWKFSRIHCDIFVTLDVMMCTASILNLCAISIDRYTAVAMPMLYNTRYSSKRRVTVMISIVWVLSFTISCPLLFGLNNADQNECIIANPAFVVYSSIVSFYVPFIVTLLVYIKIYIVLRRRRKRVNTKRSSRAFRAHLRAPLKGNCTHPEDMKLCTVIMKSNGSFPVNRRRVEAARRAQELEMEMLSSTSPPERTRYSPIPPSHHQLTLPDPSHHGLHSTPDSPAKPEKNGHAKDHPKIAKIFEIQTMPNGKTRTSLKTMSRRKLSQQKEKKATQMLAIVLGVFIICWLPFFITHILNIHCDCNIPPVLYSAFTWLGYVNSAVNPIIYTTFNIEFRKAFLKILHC
# D3, sequence (P35462 whole entry): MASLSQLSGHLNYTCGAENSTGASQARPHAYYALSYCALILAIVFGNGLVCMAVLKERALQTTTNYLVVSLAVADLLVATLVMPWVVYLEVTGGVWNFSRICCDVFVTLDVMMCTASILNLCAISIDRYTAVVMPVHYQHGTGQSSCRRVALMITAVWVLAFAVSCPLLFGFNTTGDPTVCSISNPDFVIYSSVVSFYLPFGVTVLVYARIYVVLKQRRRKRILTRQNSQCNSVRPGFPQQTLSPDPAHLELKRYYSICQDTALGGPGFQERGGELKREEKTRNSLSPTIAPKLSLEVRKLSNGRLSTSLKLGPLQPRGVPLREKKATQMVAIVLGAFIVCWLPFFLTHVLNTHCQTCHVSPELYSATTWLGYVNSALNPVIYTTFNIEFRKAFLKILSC
structure (smiles),measurement,setting,value
O=C(CC1CCN(CCOc2cccc3c2OCCO3)C1)c1ccc(F)cc1 (stereo not shown) [S16924],pKi D2,D2,7-8
same,pKi D3,D3,7-8
same,pKi 5HT1A,5HT1A,8-9
same,pKi 5-HT2A,5-HT2A receptor,>9
same,pKi 5HT2B,5HT2B,8-9
same,pKi 5HT2C,5HT2C,7-8
same,pKi 5HT6rat,5HT6rat; rat,7-8
same,pKi 5HT7rat,5HT7rat,7-8
same,pKi Alpha1A,Alpha1A,8-9
same,pKi Alpha2A,Alpha2A,6-7
same,pKi Alpha2B,Alpha2B,7-8
same,pKi Alpha2C,Alpha2C,6-7
same,pKi Beta1,Beta1,<6
same,pKi Beta2,Beta2,<6
O=C1N(CCN2CCC(c3noc4cc(F)ccc34)CC2)CCN1c1ccccc1 [S18327],pKi D1,D1,7-8
same,pKi D2,D2,7-8
same,pKi D3,D3,6-7
same,pKi D4,D4 receptor; D4,8-9
same,pKi 5HT1A,5HT1A,7-8
same,pKi 5-HT2A,5-HT2A receptor,8-9
same,pKi 5HT2C,5HT2C,6-7
same,pKi Alpha1A,Alpha1A,>9
same,pKi Alpha2A,Alpha2A,6-7
N#Cc1ccc2c(c1)[C@H]1CN(CCCCNC(=O)c3ccc(-c4ccccc4)cc3)C[C@@H]1CO2 [S33084],pKi D1,D1,6-7
same,pKi D2,D2,7-8
same,pKi D3,D3,>9
same,pKi 5HT1A,5HT1A,<6
same,pKi 5HT1B,5HT1B,6-7
same,pKi 5HT1D,5HT1D,6-7
same,pKi 5HT2B,5HT2B,6-7
same,pKi 5HT2C,5HT2C,7-8
same,pKi Alpha1A,Alpha1A,6-7
same,pKi Alpha2A,Alpha2A,<6
OCCOCCN1CCN(C2=Nc3ccccc3Sc3ccccc32)CC1 [Seroquel],Ki,5HT1E,> 1000 nM
O=C1NCCN1CCN1CCC(c2cn(-c3ccc(F)cc3)c3ccc(Cl)cc23)CC1 [Sertindole],Ki,D1,10 to 100 nM
same,Ki,5HT1B,10 to 100 nM
same,Ki,5HT1D; [1],10 to 100 nM
same,Ki,Alpha1A,< 1 nM
O=C1CC2(CCCC2)CC(=O)N1CCCCN1CCN(c2nsc3ccccc23)CC1 [Tiospirone],Ki,D2,1 to 10 nM
same,Ki,D3,1 to 10 nM
same,Ki,D4 receptor,1 to 10 nM
same,Ki,5-HT2A receptor,< 1 nM
same,Ki,Alpha1A,< 1 nM
same,Ki,Alpha2A,100 to 1000 nM
COC(=O)[C@@H]1[C@H]2C[C@H]3c4[nH]c5ccccc5c4CCN3C[C@@H]2CC[C@@H]1O [Yohimbine],Ki,D2; read-out: pKi D2 (converted),100 to 1000 nM
same,Ki,5HT1D,10 to 100 nM
O=C1Cc2cc(CCN3CCN(c4nsc5ccccc45)CC3)c(Cl)cc2N1 [Ziprasidone],Ki,5HT1A,1 to 10 nM
same,Ki,5HT1B,< 1 nM
same,Ki,5HT1D; [1],1 to 10 nM
same,Ki,5HT1E,100 to 1000 nM
same,Ki,5HT2B,1 to 10 nM
same,Ki,5HT6rat,10 to 100 nM
same,Ki,5HT7rat,1 to 10 nM
same,Ki,Beta1,> 1000 nM
same,Ki,Beta2,> 1000 nM
CN(C)CCOC1=Cc2ccccc2Sc2ccc(Cl)cc21 [Zotepine],Ki,5HT1B,10 to 100 nM
same,Ki,5HT1D; [1],10 to 100 nM
same,Ki,5HT1E,100 to 1000 nM

# — patent US20050119253A1, “Method of treating mental disorders using of D4 and 5-HT2A antagonists, inverse agonists or partial agonists” (priority 2003, published 2005)
